The values that follow come from patent US20050227994A1, “Decomposition inhibitor for extracellular matrix of cartilage” (Shionogi & Co., Ltd., priority 2002, published 2005).

pIC50: −log10 of the molar value.

The target of one experiment is T1, MMP-13 (Homo sapiens, UniProt P45452).
T1 construct: catalytic domain (^104Tyr˜^267Gly) was amplified with RT-PCR; His-tag; enterokinase digestion-site; made in house
Put plainly: Assay for inhibitory activities on MMP-13. In kind it is biochemical.
Details: not given
As to the method: In regard to MMP-13, mRNA was prepared from carcinoma cell SW1353 derived from human cartilage stimulate by IL-1, TNF and catalytic domain (^[…]) was amplified with RT-PCR. This was cloned in Escherichia. coli expression vector […] inserted with His-tag sequence and enterokinase digestion-site, induced and expressed by IPTG (Isopropyl-β-D-thiogalactopyranoside) and expressed in a insoluble fraction. Isolation of MMP-13 from an insoluble fraction was carried out by dissolving in modifier (6M urea) by a usual method and purification with metal chelate chromatography (Ni […] Sepharose). […] The enzymatic activity on MMP was analyzed by the method described in “C. Graham Knight, Frances Willenbrock and Gillian Murphy: A novel coumarin-labelled peptide for sensitive continuous assays of the matrix metalloproteinases: […] The substrate: MOCAc-[…] was purchased from Peptide Institute, Inc., Osaka, Japan.
In turn, `O=C(O)[C@@H](Cc1ccccc1)NS(=O)(=O)c1ccc(-c2ccc(C#Cc3ccc4ccccc4c3)cc2)cc1` [Compound E-29] had a pIC50 of 8.00.

Staying with this experiment, now noted: catalytic domain, substrate MOCAc-Pro-Leu-Gly-Leu-A2Pr(DNP)-Ala-Arg-NH2; read-out: MMP-13 (IC50μM).
With `Cc1ccc(-c2ccc(S(=O)(=O)N[C@H](Cc3c[nH]c4ccccc34)C(=O)O)s2)cc1` [Compound F-10], the pIC50 was 6.68.
Regarding `CC(C)c1ccc(-c2nc(-c3ccc(S(=O)(=O)N[C@@H](C(=O)O)C(C)C)cc3)no2)cc1` [Compound C-4], the pIC50 is 8.24.
On the same count and under the same terms, with `O=C(O)[C@H](Cc1ccccc1)NS(=O)(=O)c1ccc(C#Cc2ccc3c(c2)OCO3)cc1` [Compound G-9] the figure was 7.44; with `O=C(O)[C@@H](Cc1ccccc1)NS(=O)(=O)c1ccc(-c2nnn(-c3ccc(Br)cc3)n2)cc1` [Compound I-1], 7.44.
Regarding `Cc1ccc(-c2ccc(-c3ccc(S(=O)(=O)N[C@H](C)C(=O)O)cc3)s2)cc1` [Compound K-3], the pIC50 was 7.02.
Still for that read-out and setting: under `Cc1ccc(C#Cc2ccc(S(=O)(=O)N[C@H](Cc3c[nH]c4c(O)cccc34)C(=O)O)s2)cc1` [Compound H-6] stands 7.95; under `O=C(O)[C@@H](Cc1ccccc1)NS(=O)(=O)c1ccc(-c2ncc(-c3ccccc3)s2)s1` [Compound N-7], 6.94; under `Cc1ccc(-c2ccc(-c3ccc(S(=O)(=O)N[C@H](CC(C)C)C(=O)O)cc3)s2)cc1` [Compound K-6], 6.65.
On the same count and under the same terms, with `O=C(O)[C@H](Cc1ccccc1)NS(=O)(=O)c1ccc(-c2noc(-c3ccc4c(c3)OCO4)n2)cc1` [Compound C-8] the figure was 7.31; with `CC(C)C[C@@H](NS(=O)(=O)c1ccc(C#Cc2ccc3ccccc3c2)s1)C(=O)O` [Compound H-10], 5.86; with `O=C(O)[C@@H](Cc1ccccc1)NS(=O)(=O)c1ccc(C#Cc2ccc3ccccc3c2)s1` [Compound H-2], less than 5.00.
On the same count and under the same terms, under `Cc1ccc(C#Cc2ccc(S(=O)(=O)N[C@H](Cc3ccccc3)C(=O)O)s2)cc1F` [Compound H-13] stands 7.22; under `CSCC[C@H](NS(=O)(=O)c1ccc(-c2ccc(C(C)=O)cc2)s1)C(=O)O` [Compound F-25], 6.97; under `O=C(O)[C@H]1[C@@H]2CC[C@@H](C2)[C@@H]1NS(=O)(=O)c1ccc(-c2ccon2)s1` [Compound O-1], less than 5.00.
As to `CCOc1ccc(-c2ccc(S(=O)(=O)NC(C(=O)O)C(C)C)cc2)cc1` (stereo not drawn) [Compound E-19], the pIC50 was 7.91.
Still for that read-out and setting: under `CSc1ccc(-c2ccc(-c3ccc(S(=O)(=O)N[C@@H](C(=O)O)C(C)C)cc3)cc2)cc1` [Compound E-21] stands 8.70.
As for `Cc1ccc(C#Cc2ccc(S(=O)(=O)N[C@H](Cc3ccccc3)C(=O)O)cc2[N+](=O)[O-])cc1` [Compound G-4], the pIC50 is less than 5.00.
On the same count and under the same terms, under `O=C(O)[C@H]1[C@@H]2CC[C@@H](C2)[C@@H]1NS(=O)(=O)c1ccc(-c2ccc(N3CCCC3)cc2)s1` [Compound O-2] stands 6.47; under `O=C(O)[C@H](Cc1c[nH]c2ccccc12)NS(=O)(=O)c1ccc(C#Cc2ccc3ccccc3c2)cc1` [Compound G-6], 6.05.
For `NCCc1ccc(-n2nnc(-c3ccc(S(=O)(=O)N[C@H](Cc4ccccc4)C(=O)O)cc3)n2)cc1` [Compound I-3], the pIC50 was 7.54.
In the case of `CCCCc1ccc(-c2noc(-c3ccc(S(=O)(=O)N[C@H](Cc4ccccc4)C(=O)O)cc3)n2)cc1` [Compound D-3], the pIC50 was 7.00.
On the same count and under the same terms, with `COc1ccc(-c2cnc(-c3ccc(S(=O)(=O)N[C@H](CCC(=O)O)C(=O)O)cc3)s2)cc1` [Compound A-4] the figure was 8.62.
Same read-out and setting: under `O=C(O)C[C@@H](NS(=O)(=O)c1ccc(-c2ncc(-c3ccc4c(c3)OCO4)s2)cc1)C(=O)O` [Compound A-20] stands 7.74; under `CC(C)C(NS(=O)(=O)c1ccc(-c2ccc(Cl)cc2)cc1)C(=O)O` (stereo not drawn) [Compound E-3], 7.08; under `O=C(O)[C@@H](Cc1ccccc1)NS(=O)(=O)c1ccc(-c2ccc3ccccc3c2)s1` [Compound N-4], 7.15.
Same read-out and setting: with `O=C(O)[C@@H](Cc1ccccc1)NS(=O)(=O)c1ccc(-c2ncc(-c3ccc(Br)cc3)s2)cc1` [Compound A-6] the figure was 8.54.
Take `CCCCc1ccc(-n2nnc(-c3ccc(S(=O)(=O)NC4(C(=O)O)CCCCC4)cc3)n2)cc1` [Compound O-4]: the pIC50 is 7.94.
On the same count and under the same terms, under `C[C@@H](NS(=O)(=O)c1ccc(-c2ccc(-n3cccc3)cc2)s1)C(=O)O` [Compound F-15] stands 7.64.
Still for that read-out and setting: with `O=C(O)CCCNS(=O)(=O)c1ccc(-c2ccc(N3CCCC3)cc2)s1` [Compound O-6] the figure was 5.50; with `CC(C)c1ccc(-c2nc(-c3ccc(S(=O)(=O)N[C@H](CC(=O)O)C(=O)O)cc3)no2)cc1` [Compound C-7], 7.71; with `COc1ccc(-c2ccc(S(=O)(=O)N[C@H](CCSC)C(=O)O)s2)cc1` [Compound F-6], 7.42.
On the same count and under the same terms, with `Cc1ccc(-c2ccc(-c3ccc(S(=O)(=O)N[C@H](C(=O)O)C(C)C)s3)s2)cc1` [Compound L-5] the figure was 6.87; with `COc1ccc2cc(C#Cc3ccc(S(=O)(=O)N[C@H](Cc4ccccc4)C(=O)O)s3)ccc2c1` [Compound H-12], 6.82.
In the case of `CSc1ccc(-c2ccc(S(=O)(=O)NC(CC(C)C)C(=O)O)s2)cc1` (stereo not drawn) [Compound F-4], the pIC50 was 8.03.
In the case of `O=C(O)[C@H](NS(=O)(=O)c1ccc(-c2ncc(-c3ccc(Br)cc3)s2)cc1)c1ccccc1` [Compound A-7], the pIC50 is 7.95.
On the same count and under the same terms, with `Cc1ccc(C#Cc2ccc(S(=O)(=O)Nc3cc(Cl)ccc3C(=O)O)s2)cc1` [Compound O-9] the figure was less than 5.00; with `COc1ccc(-c2ccc(S(=O)(=O)N[C@H](Cc3c[nH]c4ccccc34)C(=O)O)s2)cc1` [Compound F-9], 8.44.
For `C[C@H](NS(=O)(=O)c1ccc(-c2ncc(-c3ccc4ccccc4c3)o2)cc1)C(=O)O` [Compound B-2], the pIC50 is 6.12.
The same measure, in the same setting: with `O=C(O)[C@@H](Cc1ccc(-c2ccccc2)cc1)NS(=O)(=O)c1ccc(-c2ccccc2)cc1` [Compound E-23] the figure was 5.97; with `O=C(O)[C@H](Cc1ccccc1)NS(=O)(=O)c1ccc(-n2nnc(-c3ccc4ccccc4c3)n2)cc1` [Compound J-3], less than 5.00.
On the same count and under the same terms, with `O=C(O)[C@@H](Cc1ccccc1)NS(=O)(=O)c1ccc(-c2nc(-c3ccc(Cl)c(Cl)c3)no2)cc1` [Compound D-6] the figure was 6.12; with `O=C(O)[C@@H](Cc1ccccc1)NS(=O)(=O)c1ccc(-c2nc(-c3ccc(Cl)cc3)no2)cc1` [Compound D-2], 6.85; with `C#Cc1ccc(C#Cc2ccc(S(=O)(=O)N[C@H](Cc3c[nH]c4ccccc34)C(=O)O)cc2)cc1` [Compound G-2], 7.82.
On to `O=C(O)[C@@H](NS(=O)(=O)c1ccc(-c2ncc(-c3ccc(Cl)cc3)s2)cc1)c1ccccc1` [Compound A-10], for which the pIC50 was 7.61.
With `CC(C)[C@@H](NS(=O)(=O)c1ccc(C#Cc2ccc(O)cc2)cc1)C(=O)O` [Compound G-3], the pIC50 is less than 5.00.
Same read-out and setting: with `CCC(C)[C@H](NS(=O)(=O)c1ccc(-c2ncc(-c3ccccc3)s2)cc1)C(=O)O` (stereo partly drawn) [Compound A-1] the figure was 7.92; with `CC(C)C[C@@H](NS(=O)(=O)c1ccc(C#Cc2ccc3[nH]c(=O)sc3c2)cc1)C(=O)O` [Compound G-15], 5.96; with `CCOc1ccc(-c2ccc(S(=O)(=O)NC(CC(C)C)C(=O)O)s2)cc1` (stereo not drawn) [Compound F-5], 7.74.
With `CC1C(=O)NCCN1S(=O)(=O)c1ccc(-c2ccc(N3CCOCC3)cc2)s1` (stereo not drawn) [Compound O-8], the pIC50 is 5.52.
Still for that read-out and setting: with `CC(C)[C@@H](NS(=O)(=O)c1ccc(-c2ncc(-c3ccc4c(c3)OCO4)s2)cc1)C(=O)O` [Compound A-18] the figure was 8.28.
`O=C(O)[C@@H](Cc1ccccc1)NS(=O)(=O)c1ccc(-c2ncc(-c3ccc(Cl)c(Cl)c3)o2)cc1` [Compound B-5]: the pIC50 is 7.77.
Regarding `O=C(O)[C@@H](Cc1ccccc1)NS(=O)(=O)c1ccc(-c2nc(-c3ccc(C(F)(F)F)cc3)no2)cc1` [Compound D-4], the pIC50 was 6.78.
On to `CC(C)[C@@H](NS(=O)(=O)c1ccc(-c2ccc(-c3ccccc3)cc2)cc1)C(=O)O` [Compound E-24], for which the pIC50 is 7.62.
Still for that read-out and setting: under `Cc1ccc(-c2ccc(-c3ccc(S(=O)(=O)NCCCC(=O)O)cc3)s2)cc1` [Compound O-5] stands less than 5.00; under `CSc1ccc(-c2ccc(S(=O)(=O)N3CCNC(=O)C3C)cc2)cc1` (stereo not drawn) [Compound O-7], 6.05.
On the same count and under the same terms, under `CN(C)c1ccc(-c2ccc(S(=O)(=O)N[C@H](Cc3c[nH]c4ccccc34)C(=O)O)s2)cc1` [Compound F-11] stands 9.33.
Still for that read-out and setting: with `CNc1ccc(-c2ccc(S(=O)(=O)NC(C(=O)O)C(C)C)s2)cc1` (stereo not drawn) [Compound F-21] the figure was 5.90; with `O=C(O)CNS(=O)(=O)c1ccc(-c2ccc(N3CCCC3)cc2)s1` [Compound F-13], 7.48; with `O=C(O)[C@@H](Cc1ccccc1)NS(=O)(=O)c1ccc(-c2ncc(-c3ccc(Cl)cc3)o2)cc1` [Compound B-3], 7.35.
For the molecule `C[C@@H](NS(=O)(=O)c1ccc(-c2ncc(-c3ccc4ccccc4c3)s2)cc1)C(=O)O` [Compound A-12], the pIC50 is 7.92.
Still for that read-out and setting: under `CCSc1ccc(-c2ccc(S(=O)(=O)NC(C(=O)O)C(C)CC)cc2)cc1` (stereo not drawn) [Compound E-17] stands 8.17.
Regarding `Cc1ccc(-c2ccc(S(=O)(=O)N[C@H](Cc3c[nH]c4ccccc34)C(=O)O)cc2)cc1` [Compound E-2], the pIC50 is 8.06.
